Results taken from ChEMBL document CHEMBL1139199 (Bioorg Med Chem Lett, 2007).

Experiments:
[1] = Plasma clearance in rat at 1 mg/kg, iv or 2 mg/kg, po; format: ADME, organism-based
Dipeptidyl peptidase 8 = Dipeptidyl peptidase 8 (Homo sapiens, UniProt Q6V1X1); assay: Inhibition of human DPP8 after 15 mins by continuous fluorescent assay
Dipeptidyl peptidase 9 = Dipeptidyl peptidase 9 (Homo sapiens, UniProt Q86TI2); assay: Inhibition of human DPP9 after 15 mins by continuous fluorescent assay
[2] = Oral bioavailability in rat at 2 mg/kg, po; format: ADME, organism-based; settings: in vivo
Dipeptidyl peptidase 2 = Dipeptidyl peptidase 2 (Homo sapiens, UniProt Q9UHL4); assay: Inhibition of human recombinant QPP expressed in SF9 cells
[3] = target: Voltage-gated inwardly rectifying potassium channel KCNH2 (Homo sapiens, UniProt Q12809); assay: Inhibition of cardiac hERG
[4] = Oral bioavailability in dog at 2 mg/kg, po; format: ADME, organism-based, Canis lupus familiaris; settings: in vivo
Mus musculus = organism: Mus musculus; assay: Reduction of blood glucose excursion in mouse by OGTT; format: functional, organism-based
[5] = Plasma clearance in dog at 1 mg/kg, iv or 2 mg/kg, po; format: ADME, organism-based, Canis lupus familiaris

Sequence of Dipeptidyl peptidase 8 (Q6V1X1 whole entry): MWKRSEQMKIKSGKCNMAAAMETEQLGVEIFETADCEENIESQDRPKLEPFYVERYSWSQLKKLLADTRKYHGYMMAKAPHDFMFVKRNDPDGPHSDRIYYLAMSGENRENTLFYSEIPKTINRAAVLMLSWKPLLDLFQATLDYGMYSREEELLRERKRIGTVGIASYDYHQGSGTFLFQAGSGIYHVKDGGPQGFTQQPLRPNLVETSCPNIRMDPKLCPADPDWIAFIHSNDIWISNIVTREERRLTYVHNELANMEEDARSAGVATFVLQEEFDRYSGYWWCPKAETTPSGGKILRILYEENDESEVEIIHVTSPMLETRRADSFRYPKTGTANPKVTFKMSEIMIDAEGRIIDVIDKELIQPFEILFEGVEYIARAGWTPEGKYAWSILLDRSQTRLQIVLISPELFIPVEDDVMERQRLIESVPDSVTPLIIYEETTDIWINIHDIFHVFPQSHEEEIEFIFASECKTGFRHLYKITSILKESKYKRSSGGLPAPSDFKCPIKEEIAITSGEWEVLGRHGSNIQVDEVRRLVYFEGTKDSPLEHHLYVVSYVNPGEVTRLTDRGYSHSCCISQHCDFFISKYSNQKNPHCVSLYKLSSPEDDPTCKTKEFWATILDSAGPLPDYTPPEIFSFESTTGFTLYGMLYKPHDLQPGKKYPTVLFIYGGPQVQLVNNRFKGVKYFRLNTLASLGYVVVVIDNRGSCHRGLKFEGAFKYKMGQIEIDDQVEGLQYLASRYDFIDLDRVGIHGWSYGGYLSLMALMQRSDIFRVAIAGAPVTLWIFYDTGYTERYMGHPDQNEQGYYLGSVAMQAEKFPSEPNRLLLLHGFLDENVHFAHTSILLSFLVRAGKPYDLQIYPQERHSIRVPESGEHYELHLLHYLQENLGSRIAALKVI
Sequence of Voltage-gated inwardly rectifying potassium channel KCNH2 (Q12809 whole entry): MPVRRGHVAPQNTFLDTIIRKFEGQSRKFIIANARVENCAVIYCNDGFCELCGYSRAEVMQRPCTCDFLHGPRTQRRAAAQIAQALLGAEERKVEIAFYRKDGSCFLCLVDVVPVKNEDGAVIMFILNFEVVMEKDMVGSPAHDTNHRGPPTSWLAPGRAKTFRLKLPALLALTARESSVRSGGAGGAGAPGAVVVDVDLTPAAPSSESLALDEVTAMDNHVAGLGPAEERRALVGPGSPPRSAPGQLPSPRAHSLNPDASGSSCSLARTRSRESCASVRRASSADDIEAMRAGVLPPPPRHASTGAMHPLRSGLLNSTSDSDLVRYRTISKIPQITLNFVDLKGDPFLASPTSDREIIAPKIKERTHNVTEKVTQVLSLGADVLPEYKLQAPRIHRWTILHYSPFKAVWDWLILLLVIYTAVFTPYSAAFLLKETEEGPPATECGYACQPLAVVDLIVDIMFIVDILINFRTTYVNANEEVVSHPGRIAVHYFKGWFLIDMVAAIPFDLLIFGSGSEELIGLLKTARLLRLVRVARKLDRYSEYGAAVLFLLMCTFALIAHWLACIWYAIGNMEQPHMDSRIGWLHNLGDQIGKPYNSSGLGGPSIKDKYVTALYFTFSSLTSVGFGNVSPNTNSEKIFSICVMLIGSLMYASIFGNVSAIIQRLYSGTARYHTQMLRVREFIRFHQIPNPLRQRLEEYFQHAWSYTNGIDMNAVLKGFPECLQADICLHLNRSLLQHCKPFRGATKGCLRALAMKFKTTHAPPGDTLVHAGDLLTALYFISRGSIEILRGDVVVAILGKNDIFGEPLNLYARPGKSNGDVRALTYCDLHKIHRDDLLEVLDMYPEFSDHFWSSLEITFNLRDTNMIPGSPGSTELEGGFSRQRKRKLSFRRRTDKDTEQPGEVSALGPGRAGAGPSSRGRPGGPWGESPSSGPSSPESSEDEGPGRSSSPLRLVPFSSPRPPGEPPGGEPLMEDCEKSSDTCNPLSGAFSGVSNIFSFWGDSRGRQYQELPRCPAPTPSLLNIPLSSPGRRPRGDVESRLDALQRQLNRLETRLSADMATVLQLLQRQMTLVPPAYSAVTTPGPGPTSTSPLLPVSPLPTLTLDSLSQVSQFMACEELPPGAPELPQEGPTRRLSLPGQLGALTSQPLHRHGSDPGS
Sequence of Dipeptidyl peptidase 9 (Q86TI2 whole entry): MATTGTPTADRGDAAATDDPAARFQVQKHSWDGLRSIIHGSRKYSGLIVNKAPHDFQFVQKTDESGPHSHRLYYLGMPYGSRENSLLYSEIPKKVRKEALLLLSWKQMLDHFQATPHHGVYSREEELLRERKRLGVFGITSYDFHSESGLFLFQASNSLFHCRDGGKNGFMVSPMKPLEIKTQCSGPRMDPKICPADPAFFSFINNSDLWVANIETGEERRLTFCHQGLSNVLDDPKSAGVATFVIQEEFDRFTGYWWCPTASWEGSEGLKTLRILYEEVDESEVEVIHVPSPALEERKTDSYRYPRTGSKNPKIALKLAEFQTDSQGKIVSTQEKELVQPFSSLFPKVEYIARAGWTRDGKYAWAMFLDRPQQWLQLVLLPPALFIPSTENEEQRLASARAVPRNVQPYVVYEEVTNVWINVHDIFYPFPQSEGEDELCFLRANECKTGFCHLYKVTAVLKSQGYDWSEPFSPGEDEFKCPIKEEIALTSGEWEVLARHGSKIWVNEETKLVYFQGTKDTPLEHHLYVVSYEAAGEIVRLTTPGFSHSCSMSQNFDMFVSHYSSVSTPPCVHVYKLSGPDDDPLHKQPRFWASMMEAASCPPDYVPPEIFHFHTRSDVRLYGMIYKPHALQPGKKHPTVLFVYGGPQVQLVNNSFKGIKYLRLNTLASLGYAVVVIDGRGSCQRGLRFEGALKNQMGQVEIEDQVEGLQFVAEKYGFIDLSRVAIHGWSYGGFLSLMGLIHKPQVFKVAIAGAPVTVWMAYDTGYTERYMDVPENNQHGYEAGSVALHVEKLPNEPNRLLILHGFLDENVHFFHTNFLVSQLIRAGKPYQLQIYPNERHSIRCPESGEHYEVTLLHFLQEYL

| Compound | clearance [1] | IC50 (Dipeptidyl peptidase 8) | IC50 (Dipeptidyl peptidase 9) | bioavailability [2] | also measured |
| --- | --- | --- | --- | --- | --- |
| C[C@@H](c1ccc(N(C)C(=O)c2ccc(F)cc2)cc1)[C@H](N)C(=O)N1CC[C@H](F)C1 |  | > 100 µM | > 100 µM |  |  |
| C[C@@H](C1CCC(N(C)C(=O)C2CC2)CC1)[C@H](N)C(=O)N1CC[C@H](F)C1.Cl (some centres undefined) | 49 mL/min/kg |  |  | 46% |  |
| CN(C)C(=O)[C@@H](C1CCC(N(C)C(=O)c2cccc(F)c2)CC1)[C@H](N)C(=O)N1CC[C@H](F)C1.Cl (some centres undefined) | 27 mL/min/kg | > 100 µM | > 100 µM | 25% | IC50 [3]: > 90 µM |
| C[C@@H](C1CCC(N(C)C(=O)c2cccc(F)c2)CC1)[C@H](N)C(=O)N1CC[C@H](F)C1.Cl (some centres undefined) | 40 mL/min/kg |  |  | 72% |  |
| CN(C)C(=O)[C@@H](c1ccc(N(C)C(=O)c2ccc(F)cc2)cc1)[C@H](N)C(=O)N1CC[C@H](F)C1.O=C(O)C(F)(F)F | 73 mL/min/kg | > 100 µM | > 100 µM | 6% | IC50 [3]: > 90 µM; IC50 (Dipeptidyl peptidase 2): > 100 µM |
| CC(=O)Nc1ccc([C@H](C(=O)N(C)C)[C@H](N)C(=O)N2CC[C@H](F)C2)cc1 |  |  | > 100 µM |  | IC50 (Dipeptidyl peptidase 2): > 100 µM |
| CC(=O)N(C)C1CCC([C@H](C)[C@H](N)C(=O)N2CC[C@H](F)C2)CC1.Cl (some centres undefined) | 42 mL/min/kg |  | > 100 µM | 56% | IC50 [3]: > 90 µM; bioavailability [4]: 83%; Activity (Mus musculus): Dose-dependent effect; clearance [5]: 4.4 mL/min/kg |
| Cc1ccc(C(=O)N(C)c2ccc([C@H](C(=O)N(C)C)[C@H](N)C(=O)N3CC[C@H](F)C3)cc2)cc1 |  | > 100 µM | > 100 µM |  | IC50 (Dipeptidyl peptidase 2): > 100 µM |

Now from value to compound, other results behind:

| clearance [1] | IC50 (Dipeptidyl peptidase 8) | IC50 (Dipeptidyl peptidase 9) | bioavailability [2] | Compound | also measured |
| --- | --- | --- | --- | --- | --- |
| 18 mL/min/kg | > 100 µM | > 100 µM | 3% | CC(=O)N(C)C1CCC([C@H](C(=O)N(C)C)[C@H](N)C(=O)N2CC[C@H](F)C2)CC1.Cl (some centres undefined) |  |
|  | > 100 µM | > 100 µM |  | CN(C)C(=O)[C@@H](c1ccc(NS(=O)(=O)c2ccccc2)cc1)[C@H](N)C(=O)N1CC[C@H](F)C1 |  |
|  | > 100 µM | > 100 µM |  | Cc1ccc(S(=O)(=O)N(C)c2ccc([C@H](C(=O)N(C)C)[C@H](N)C(=O)N3CC[C@H](F)C3)cc2)cc1 | IC50 (Dipeptidyl peptidase 2): > 100 µM |
|  | > 100 µM | > 100 µM |  | CN(C)C(=O)[C@@H](C1CCC(NS(=O)(=O)c2ccc(OC(F)(F)F)cc2)CC1)[C@H](N)C(=O)N1CC[C@H](F)C1 (some centres undefined) |  |
|  | > 100 µM | > 100 µM |  | CN(C)C(=O)[C@@H](C1CCC(NS(=O)(=O)c2ccc(F)cc2F)CC1)[C@H](N)C(=O)N1CC[C@H](F)C1 (some centres undefined) |  |
|  |  | > 100 µM |  | CC(=O)Nc1ccc([C@H](C)[C@H](N)C(=O)N2CC[C@H](F)C2)cc1 |  |
|  | > 100 µM | > 100 µM |  | CC(=O)N(C)c1ccc([C@H](C(=O)N(C)C)[C@H](N)C(=O)N2CC[C@H](F)C2)cc1 | IC50 (Dipeptidyl peptidase 2): > 100 µM |
|  | > 100 µM | > 100 µM |  | CC(=O)N(C)c1ccc([C@H](C)[C@H](N)C(=O)N2CC[C@H](F)C2)cc1 |  |
| 24 mL/min/kg |  |  |  | Cl.N[C@H](C(=O)N1CC[C@H](F)C1)C1CCC(NS(=O)(=O)c2ccc(F)cc2F)CC1 (some centres undefined) |  |
